# Test results reported in patent US9340556B2, “Antibacterial compounds” (GLAXO GROUP LIMITED, priority 2011, dated 2016).
# Counter-ions that a name gives are not always drawn.
# Assay: Antimicrobial activity assay: whole-cell broth microdilution MIC (CLSI M7-A7)
# Type: cell-based
# Settings: for at least one strain of one organism listed, serial two-fold dilutions 0.064 to 64 μg/ml, in the presence of 20 uM human apo-Transferrin, tested in at least one exemplified salt or free base form, read-out: MIC (minimum inhibitory concentration)
# Method: Antimicrobial Activity Assay
# Whole-cell antimicrobial activity was determined by broth microdilution using the Clinical and Laboratory Standards Institute (CLSI) recommended procedure, Document M7-A7, “Methods for Dilution Susceptibility Tests for Bacteria that Grow Aerobically”. In some cases, broth microdilution MICs were determined using IsoSensitest broth (Oxoid) in place of CLSI recommended cation adjusted Mueller-Hinton broth. The compounds were tested in serial two-fold dilutions ranging from 0.064 to 64 μg/ml in the presence of 20 uM human apo-Transferrin (Sigma T-1147).
# Compounds were evaluated against Gram-negative organisms selected from Escherichia coli, Pseudomonas aeruginosa, Proteus mirabilis, Enterobacter cloacae, Enterobacter aerogenes, Klebsiella pneumoniae, Stenotrophomonas maltophilia, Acinetobacter baumanii, Serratia marascens, Citrobacter freundii, and Klebsiella oxytoca.
# The minimum inhibitory concentration (MIC) was determined as the lowest concentration of compound that inhibited visible growth. A mirror reader was used to assist in determining the MIC endpoint.
# Each of the listed Examples 1 to 56 and 59 to 61 identified in the present application, were tested in at least one exemplified salt or free base form.
smiles,measurement,value
"Cn1cc(O)c(=O)c2cc(C[N+]3(CC4=C(C(=O)[O-])N5C(=O)[C@@H](NC(=O)/C(=N\O[C@@H](CC(=O)O)C(=O)O)c6csc(N)n6)[C@H]5SC4)CCCC3)ccc21 [Example 5, (6R,7R)-7-((Z)-2-(2-aminothiazol-4-yl)-2-(((S)-1,2-dicarboxyethoxy)imino)acetamido)-3-((1-((3-hydroxy-1-methyl-4-oxo-1,4-dihydroquinolin-6-yl)methyl)pyrrolidin-1-ium-1-yl)methyl)-8-oxo-5-thia-1-azabicyclo[4.2.0]oct-2-ene-2-carboxylate, 3 Sodium salt]",MIC,≤ 8 µg/mL
